{"source": "patent US10954300B2", "about": "“Use of pentoxifylline with immune checkpoint-blockade therapies for the treatment of melanoma” (THE TRUSTEES OF COLUMBIA UNIVERSITY IN THE CITY OF NEW YORK, priority 2015, dated 2021)", "key": {"Treg cells [1]": {"system": "Treg cells", "assay": "In vivo suppression (colitis) assay with PTXF-treated Treg cells", "set-up": "species or system RAG1−/− mice", "conditions": "Treg transferred with naïve Tconv cells", "procedure": "Total cells suspensions were then activated with 5 μg/mL plate-coated anti-mCD3, 1 μg/ml soluble anti-mCD28 (BioLegend) and 10 ng/mL mIL-2, overnight at 37 C. Treg cells were then washed for further use. For in vitro assays, CD45.1^+ naïve conventional CD4+ T cells were magnetically isolated (Miltenyi) and labelled with CellTrace Violet Proliferation Tracker (Life Technologies). They were cultured with T-cell depleted, mitomycin C-treated WT splenocytes and 2.5 μg/mL anti-mCD3, in the presence or not of treated Treg cells as described above. Proliferation of CD45.1^+ T cells was assessed by FACS at D4. The % of suppression was calculated as described. For in vivo assays, 4.10^5 naïve Tconv cells were isolated as above and transferred with or without 1.10^5 Treg cells, to the retro-orbital sinus of 6-9 week-old RAG1^−/− mice. Recipients were then weighed every week and euthanized when weight loss was >30%."}, "c-Rel": {"target": "T1, c-Rel (Homo sapiens, UniProt Q04864)", "T1 construct": "host or cells: T cells", "T1 sequence (Q04864 1-619)": "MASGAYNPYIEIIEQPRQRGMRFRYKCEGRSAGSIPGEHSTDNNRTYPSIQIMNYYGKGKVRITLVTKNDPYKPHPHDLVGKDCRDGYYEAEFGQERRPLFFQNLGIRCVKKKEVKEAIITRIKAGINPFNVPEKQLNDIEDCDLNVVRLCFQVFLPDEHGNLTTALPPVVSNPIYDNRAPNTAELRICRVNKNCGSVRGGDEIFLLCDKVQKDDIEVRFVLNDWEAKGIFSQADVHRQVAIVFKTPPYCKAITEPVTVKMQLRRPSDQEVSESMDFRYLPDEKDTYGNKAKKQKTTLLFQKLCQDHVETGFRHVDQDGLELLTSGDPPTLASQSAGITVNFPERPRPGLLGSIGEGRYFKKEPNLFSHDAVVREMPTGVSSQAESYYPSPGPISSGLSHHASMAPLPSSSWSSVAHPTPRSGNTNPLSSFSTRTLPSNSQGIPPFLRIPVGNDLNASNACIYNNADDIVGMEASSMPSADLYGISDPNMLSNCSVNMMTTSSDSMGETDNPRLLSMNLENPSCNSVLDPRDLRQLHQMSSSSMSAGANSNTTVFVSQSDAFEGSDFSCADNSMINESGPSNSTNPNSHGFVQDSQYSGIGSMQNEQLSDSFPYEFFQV", "conditions": "cited from earlier work"}, "B16F1 melanoma cells [2]": {"system": "B16F1 melanoma cells", "assay": "Established B16F1 melanoma, PTXF with or without checkpoint-blockade mAb", "format": "in vivo, C57Bl/6 WT mice", "conditions": "for tumor size / tumor growth (growth curves): PTXF 50 mg/kg and/or anti-PD-1 mAb from D5-D6, vs control", "procedure": "Pentoxifylline (Sigma) powder was dissolved in PBS1X and sterile filtered prior to each injection. For the early regimen of pentoxifylline treatment, mice were injected intra-peritoneally with 50 mg/kg pentoxifylline diluted in 100 μL PBS1X at days 0, 1, 2, 3, 5, 7, and 9. For the “curative” regimen, mice were treated daily from day 5-6 (when the tumor was visible and palpable) to day 11, following the same methods. IT-603 was reconstituted in DMSO and stored at −80° C. It then was diluted in PBS1X and sterile-filtered prior to each injection. Mice were injected intra-peritoneally with 10 mg/kg […] diluted in 100 μL PBS1X at days 0, 1, 2, 3, 5, 7 and 9.\nAnti-PD-1 antibody (clone RMP1-14, BioXCell®) or isotype control (polyclonal IgG, BioXCell®) is available commercially. The antibodies were aliquoted in sterile PBS1X and stored at −80° C. until use. Mice are injected intra-peritoneally with […] of anti-PD-1 or isotype antibody, diluted in 100 μL sterile PBS1X at days 6, 8 and 10. All injections are performed using a 27.5 gauge needle, following the standard precautions.\n(§1) 5×10^4 B16F1 or 5×10^5 CT-26 or BRAF^CAPten^−/− cells diluted in sterile PBS1X were injected subcutaneously into the shaved flank of each mouse. For metastasis experiments, 2.5×10^4 B16F10 cells were injected intravenously in the tail vein. […] Anti-PD-1 (RMP1-14), anti-PD-L1 (10F.9G2) and anti-CD8 (YTS.169-4) mAbs were obtained from BioXCell. Rat IgG isotype control was from R&D Systems. […] In FIG. 11A-11G, Balb/c mice harboring CT-26 tumors received a suboptimal dose of 100 μg of anti-PD-1.\nTumor growth was monitored daily."}, "B16F10 cells": {"system": "B16F10 cells", "assay": "B16F10 metastatic melanoma, lung foci", "format": "in vivo, C57Bl/6J mice", "conditions": "B16F10 i.v.; early PTXF treatment", "procedure": "5×10^4 B16F1 or 5×10^5 CT-26 or BRAF^[…]^-/- cells diluted in sterile PBS1X were injected subcutaneously into the shaved flank of each mouse. For metastasis experiments, 2.5×10^4 B16F10 cells were injected intravenously in the tail vein. […] Anti-PD-1 (RMP1-14), anti-PD-L1 (10F.9G2) and anti-CD8 (YTS.169-4) mAbs were obtained from BioXCell. Rat IgG isotype control was from R&D Systems."}, "B16F1 melanoma cells [3]": {"system": "B16F1 melanoma cells", "assay": "B16F1 melanoma growth, early treatment with PTXF or IT-603", "format": "in vivo, C57Bl/6 WT mice", "procedure": "B16F1, B16F10 and CT-26 cells were obtained from the ATCC and grown in DMEM+10% FBS medium. BRAF^CAPten^−/− cells were originally derived from an in vivo melanoma induced by topical tamoxifen treatment of Ubc^cre-ERT2 BRAF^CA Pten^F/F, as described. All cell lines were periodically tested for murine pathogens. Cells were grown in DMEM supplemented with 10% FBS. When confluence reached 60-70%, cells were detached and washed in PBS1X. Fifty thousand cells diluted in 50 μL PBS1X were injected subcutaneously in the shaved abdomen of each mouse. Tumor growth was measured daily using a caliper.\nPentoxifylline (Sigma) powder was dissolved in PBS1X and sterile filtered prior to each injection. […] For the “curative” regimen, mice were treated daily from day 5-6 (when the tumor was visible and palpable) to day 11, following the same methods. IT-603 was reconstituted in DMSO and stored at −80° C. It then was diluted in PBS1X and sterile-filtered prior to each injection. […]\nas §1\nC57BI/6 WT mice were injected subcutaneously with 5×10^4 B16F1 melanoma cells, and then injected with either PBS (control), pentoxifylline, or IT-603 (red arrows). Tumor growth was monitored daily."}, "Treg cells [4]": {"system": "Treg cells", "assay": "In vitro suppression assay with PTXF-treated Treg cells", "format": "cell-based, mice", "conditions": "vs mock-treated Treg cells"}}, "note": "Entries after “also recorded” stand apart in the source; their conditions may differ.", "data": [{"smiles": "CC(=O)CCCCn1c(=O)c2c(ncn2C)n(C)c1=O", "note": "[PTXF, 1-(5-oxohexyl)-3,7-dimethylxanthine]", "values": [{"measurement": "prevention of colitis by PTXF-treated Treg", "setting": "Treg cells [1]", "value": "completely failed to prevent colitis"}, {"measurement": "levels of c-Rel activation in T cells in vitro", "setting": "c-Rel", "value": "reduces the levels of c-Rel activation"}, {"measurement": "tumor size / tumor growth (growth curves)", "setting": "B16F1 melanoma cells [2]", "value": "did not change the growth curves; also recorded: did not significantly reduce tumor size"}, {"measurement": "tumor size / tumor growth (growth curves)", "setting": "B16F1 melanoma cells [2]; listed as pentoxifylline", "value": "did not significantly reduce tumor size"}, {"measurement": "tumor growth, anti-PD-L1 instead of anti-PD-1", "setting": "B16F1 melanoma cells [2]; PTXF and/or anti-PD-L1 mAb", "value": "did not affect tumor growth"}, {"measurement": "total number of metastatic foci in lungs", "setting": "B16F10 cells", "value": "significantly decreased"}, {"measurement": "size or composition of lymphoid tissues", "setting": "B16F1 melanoma cells [3]; B16F1-bearing mice, 50 mg/kg PTXF", "value": "No observable differences"}, {"measurement": "adverse events", "setting": "B16F1 melanoma cells [3]; B16F1-bearing mice, 50 mg/kg PTXF, 50 mg/kg", "value": "no apparent adverse events; also recorded: No adverse effects of treatment were observed"}, {"measurement": "pace of tumor growth", "setting": "B16F1 melanoma cells [3]; B16F1, daily injections of 50 mg/kg PTXF vs PBS", "value": "significant reduction in the pace of tumor growth"}, {"measurement": "tumor growth (tumor volume, monitored daily)", "setting": "B16F1 melanoma cells [3]; B16F1 s.c., PTXF 50 mg/kg or IT-603 10 mg/kg on days 0, 2, 3, 4, 6 and 8, vs control vehicle", "value": "significantly reduced growth of the tumors"}, {"measurement": "suppression of effector T-cell proliferation by PTXF-treated Treg cells", "setting": "Treg cells [4]", "value": "modest, but significant, reduction"}]}]}
